{"source": "patent US20210393855A1", "about": "“NEW HYDROGELS HAVING A SILYLATED STRUCTURE, AND METHOD FOR OBTAINING SAME” (Universite de Montpellier, priority 2015, published 2021)", "experiment": "Fluorescein release from hydrogels in phosphate buffer, monitored by HPLC", "assay_type": "physicochemical", "settings": "covalently grafted in PEG hydrogel, plateau after 72 hours", "description": "FIG. 2: this figure concerns tests to quantify the release of fluorescein from various hydrogels according to the invention. The hydrogels grafted with fluorescein by covalent bond show much lower release rates than the hydrogel containing fluorescein simply enclosed with no covalent bond.\nIn order to show the covalent incorporation of a (bio)molecule into the gel and the absence of release over time of the grafted molecules, fluorescein derivatives were selected to be chemically linked to the hydrogels in accordance with the present invention (see FIG. 2 for the exact formulae). Thus, if there were to be a release of the grafted molecules, the use of fluorescein would make it possible to easily detect it.\nFluorescein isothiocyanate (FITC) was used to prepare two types of fluorescein derivatives giving covalent bonds (triethoxysilane and dimethylhydroxysilane), as well as a non-silylated molecule used as control. Each fluorescein derivative was dissolved at a concentration of 5.2 mM in a solution of bi-silylated hybrid PEG, itself at a concentration of 10% by mass relative to the mass of DPBS used as solvent. Sodium fluoride was added, and the solutions were homogenized. Fluorescent hybrid hydrogels were obtained at 37° C. in 30 minutes. The various hydrogels were placed in phosphate buffer (10 mL) and fluorescein release was monitored by HPLC. […]", "data": [{"compound": "C[Si](C)(O)CCCNC(=O)NCCCNC(=S)Nc1ccc(-c2c3ccc(=O)cc-3oc3cc(O)ccc23)c(C(=O)O)c1", "note": "[dimethythydroxyfluorescein, Hydroxydimethylsilyl Fluorescein]", "values": [{"measurement": "maximum release (relative to the total amount of fluorescein introduced)", "value": 20, "unit": "%"}]}]}
